Consider 13 molecules from PubChem BioAssay (NCI).

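Cells were grown in 96-well plates and exposed to each compound for 48 hours at five concentrations; endpoints were interpolated linearly between bracketing concentrations, or set to the highest concentration if not reached. The concentration for full growth arrest is given as TGI.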

Test systems include BT-549 breast; HCT-116 colon; HOP-62 NSCLC; KM12 colon; MOLT-4 leukemia; OVCAR-3 ovarian; SK-MEL-28 melanoma; SNB-19 CNS; SR leukemia; U251 CNS.
What all share (assay): inhibition of tumour cell growth, NCI panel, 48 h

For the molecule `O=C1/C(=C/c2ccccc2S)N=C(c2ccccc2)N1c1ccc2c(c1)Sc1cc(N3C(=O)/C(=C/c4ccccc4S)N=C3c3ccccc3)ccc1N2`, the TGI in the assay on BT-549 breast was 73.5 µM; in the assay on HCT-116 colon, 40.8 µM; in the assay on HOP-62 NSCLC it was 72.7 µM; in the assay with KM12 colon it was greater than 100 µM; in the assay on MOLT-4 leukemia, 39.7 µM; in the assay on OVCAR-3 ovarian, 38.1 µM. Besides, the TGI with SK-MEL-28 melanoma stood at 44.5 µM; in the assay on SNB-19 CNS, 30.4 µM; in the assay with SR leukemia, 40.4 µM; in the assay with U251 CNS, 40.5 µM.
For the molecule `CCCCC[C@H](O)[C@H](C)C=C1SCCCS1`, the TGI with BT-549 breast, in the assay with HCT-116 colon, with HOP-62 NSCLC, in the assay on KM12 colon, with MOLT-4 leukemia and in the assay on OVCAR-3 ovarian was greater than 100 µM throughout. Further, the TGI in the assay with SK-MEL-28 melanoma, in the assay with SNB-19 CNS, with SR leukemia and with U251 CNS was greater than 100 µM each time.
Turning to `CCOC(=O)c1c2c(n(C)c1-c1ccccc1)C(=O)C(C)=CC2=O`, the TGI stood at 27.7 µM with BT-549 breast; 15 µM in the assay on HCT-116 colon; 33.6 µM in the assay with HOP-62 NSCLC; 22.5 µM in the assay with KM12 colon; 9.96 µM with MOLT-4 leukemia; 8.17 µM with OVCAR-3 ovarian. For the same molecule, the TGI with SK-MEL-28 melanoma came out at 27.8 µM; with SNB-19 CNS, 26.7 µM; with SR leukemia, 9.39 µM; in the assay on U251 CNS, 22.8 µM.
Regarding `COc1ccc(/C=N/Nc2[nH]c(=S)nc3[nH]ncc23)cc1`, the TGI in the assay with BT-549 breast is greater than 100 µM; in the assay with HCT-116 colon it was greater than 100 µM; with HOP-62 NSCLC it was 77.9 µM; in the assay on KM12 colon, greater than 100 µM; in the assay on MOLT-4 leukemia, greater than 100 µM; in the assay on OVCAR-3 ovarian it was greater than 100 µM. For the same molecule, the TGI was greater than 100 µM in the assay with SK-MEL-28 melanoma, 59.2 µM with SNB-19 CNS, greater than 100 µM in the assay on SR leukemia and 40.7 µM with U251 CNS.
On to `COc1ccc(C2CC(c3c(C)nn(-c4ccccc4)c3-c3ccc(C)cc3O)=NN2c2ccccc2)cc1` (stereo not given), for which the TGI is greater than 100 µM in the assay with BT-549 breast; greater than 100 µM with HCT-116 colon; greater than 100 µM with HOP-62 NSCLC; greater than 43.7 µM with KM12 colon; greater than 100 µM in the assay on MOLT-4 leukemia; greater than 100 µM in the assay on OVCAR-3 ovarian. Also, the TGI in the assay on SK-MEL-28 melanoma, in the assay on SNB-19 CNS, in the assay on SR leukemia and with U251 CNS was greater than 100 µM each time.
With `CN(C)CCCn1c2ccccc2c2cnccc21`, the TGI was greater than 100 µM in the assay on BT-549 breast; greater than 100 µM in the assay with HCT-116 colon; greater than 100 µM with HOP-62 NSCLC; greater than 100 µM in the assay with KM12 colon; 83.9 µM in the assay on MOLT-4 leukemia; greater than 100 µM in the assay with OVCAR-3 ovarian. The TGI is greater than 100 µM in the assay on SK-MEL-28 melanoma, greater than 100 µM in the assay on SNB-19 CNS, 43.4 µM with SR leukemia and greater than 100 µM in the assay with U251 CNS.
Turning to `O=C1CCSSCCC(=O)Nc2ccccc2N1`, the TGI with BT-549 breast, with HCT-116 colon, with HOP-62 NSCLC, with KM12 colon, in the assay on MOLT-4 leukemia and in the assay on OVCAR-3 ovarian was greater than 100 µM each time. For the same molecule, the TGI in the assay with SK-MEL-28 melanoma, in the assay on SNB-19 CNS, in the assay with SR leukemia and in the assay on U251 CNS was greater than 100 µM in each case.
As to `O=C(Nc1cccc2nsnc12)c1cc2c(cc1Cl)Sc1nccn1S2(=O)=O`, the TGI in the assay with BT-549 breast was 36.9 µM; in the assay on HCT-116 colon it was 6.97 µM; in the assay on HOP-62 NSCLC it was 4.37 µM; in the assay on KM12 colon, 4.65 µM; in the assay on MOLT-4 leukemia, greater than 30.7 µM; with OVCAR-3 ovarian, 3.47 µM. Further, the TGI with SK-MEL-28 melanoma was 8.86 µM; in the assay with SNB-19 CNS, 24.8 µM; with SR leukemia, greater than 21.8 µM; with U251 CNS, 17.6 µM.
Regarding `Cn1c(N)c(/C=N/NC(=O)CC#N)c(=O)n(C)c1=O`, the TGI in the assay with BT-549 breast, in the assay on HCT-116 colon, in the assay with HOP-62 NSCLC, in the assay on KM12 colon, in the assay with MOLT-4 leukemia and in the assay on OVCAR-3 ovarian was greater than 100 µM each time. The TGI in the assay with SK-MEL-28 melanoma, in the assay with SNB-19 CNS, with SR leukemia and in the assay with U251 CNS was greater than 100 µM each time.
As for `C=C[C@]1(C)CC[C@]2(C)C(CC[C@@]3(C)C2C[C@H](O)[C@H](O)[C@@]3(C)O)C1` (stereo not given in full), the TGI in the assay on BT-549 breast, in the assay on HCT-116 colon, in the assay on HOP-62 NSCLC, with KM12 colon, in the assay on MOLT-4 leukemia and in the assay with OVCAR-3 ovarian was greater than 100 µM in each case. In addition, the TGI in the assay with SK-MEL-28 melanoma, in the assay with SNB-19 CNS, with SR leukemia and with U251 CNS was greater than 100 µM throughout.
Consider `O=C1c2cc(Cl)ccc2-n2c(noc2=O)C2CSCN12` (stereo not given), for which the TGI with BT-549 breast, in the assay on HCT-116 colon, in the assay on HOP-62 NSCLC, with KM12 colon, with MOLT-4 leukemia and in the assay with OVCAR-3 ovarian was greater than 100 µM each time. Also, the TGI in the assay on SK-MEL-28 melanoma, in the assay with SNB-19 CNS, in the assay with SR leukemia and with U251 CNS was greater than 100 µM throughout.
Take `CC(C)=CC(=O)O[C@@H]1CC(C)(C)CC2C3=CCC4[C@]56CC[C@](O)(OC5)C(C)(C)C6CC[C@@]4(C)C3(C)CC[C@]21C(=O)O` (stereo not given in full): the TGI in the assay with BT-549 breast, in the assay on HCT-116 colon, with HOP-62 NSCLC, in the assay on KM12 colon, in the assay with MOLT-4 leukemia and in the assay with OVCAR-3 ovarian was greater than 100 µM throughout. The TGI with SK-MEL-28 melanoma, in the assay on SNB-19 CNS, in the assay on SR leukemia and with U251 CNS was greater than 100 µM in each case.
For `CCOC(=O)/C=C1\Nc2ccccc2C12CCc1c([nH]c3ccccc13)C2C(=O)OCC` (stereo not given), the TGI in the assay on BT-549 breast, in the assay on HCT-116 colon, in the assay on HOP-62 NSCLC, with KM12 colon, in the assay with MOLT-4 leukemia and with OVCAR-3 ovarian was greater than 100 µM in each case. In addition, the TGI with SK-MEL-28 melanoma, with SNB-19 CNS, with SR leukemia and in the assay on U251 CNS was greater than 100 µM in each case.
